# In patent US10472336B2, “Modulators of indoleamine 2,3-dioxygenase” (GlaxoSmithKline Intellectual Property (No.2) Limited, priority 2015, dated 2019):
# Where a name gives a salt, the structure may show the parent alone.
# Biological target: indoleamine 2, 3-dioxygenase (IDO1) (Homo sapiens, UniProt P14902)
# Assay: HeLa IDOi assay (kynurenine detection by mass spectrometry)
# Format: cell-based
# Parameters: human epithelial HeLa cells (CCL-2; host or cells: HeLa cells stimulated with human IFN-γ
# Conditions: IFN-γ stimulated human epithelial HeLa cells, 2 days
# Description: Compounds of the present invention were tested via high-throughput cellular assays utilizing detection of kynurenine via mass spectrometry and cytotoxicity as end-points. For the mass spectrometry and cytotoxicity assays, human epithelial HeLa cells (CCL-2; ATCC®, Manassas, Va.) were stimulated with human interferon-γ (IFN-γ) (Sigma-Aldrich Corporation, St. Louis, Mo.) to induce the expression of indoleamine 2, 3-dioxygenase (IDO1). Compounds with IDO1 inhibitory properties decreased the amount of kynurenine produced by the cells via the tryptophan catabolic pathway. Cellular toxicity due to the effect of compound treatment was measured using CellTiter-Glo® reagent (CTG) (Promega Corporation, Madison, Wis.), which is based on luminescent detection of ATP, an indicator of metabolically active cells.
# In preparation for the assays, test compounds were serially diluted 3-fold in DMSO from a typical top concentration of 5 mM and plated at 0.5 μL in 384-well, polystyrene, clear bottom, tissue culture treated plates with lids (Greiner Bio-One, Kremsmünster, Austria) to generate 11-point dose response curves. Low control wells (0% kynurenine or 100% cytotoxicity) contained either 0.5 μL of DMSO in the presence of unstimulated (−IFN-γ) HeLa cells for the mass spectrometry assay or 0.5 μL of DMSO in the absence of cells for the cytotoxicity assay, and high control wells (100% kynurenine or 0% cytotoxicity) contained 0.5 μL of DMSO in the presence of stimulated (+IFN-γ) HeLa cells for both the mass spectrometry and cytotoxicity assays.
# Frozen stocks of HeLa cells were washed and recovered in DMEM high glucose medium with HEPES (Thermo Fisher Scientific, Inc., Waltham, Mass.) supplemented with 10% v/v certified fetal bovine serum (FBS) (Thermo Fisher Scientific, Inc., Waltham, Mass.), and 1× penicillin-streptomycin antibiotic solution (Thermo Fisher Scientific, Inc., Waltham, Mass.). The cells were diluted to 100,000 cells/mL in the supplemented DMEM medium. 50 μL of either the cell suspension, for the mass spectrometry assay, or medium alone, for the cytotoxicity assay, were added to the low control wells, on the previously prepared 384-well compound plates, resulting in 5,000 cells/well or 0 cells/well respectively. IFN-γ was added to the remaining cell suspension at a final concentration of 10 nM, and 50 μL of the stimulated cells were added to all remaining wells on the 384-well compound plates. The plates, with lids, were then placed in a 37° C., 5% CO2 humidified incubator for 2 days.
# Following incubation, the 384-well plates were removed from the incubator and allowed to equilibrate to room temperature for 30 minutes. For the cytotoxicity assay, CellTiter-Glo® was prepared according to the manufacturer's instructions, and 10 μL were added to each plate well. After a twenty minute incubation at room temperature, luminescence was read on an EnVision® Multilabel Reader (PerkinElmer Inc., Waltham, Mass.). For the mass spectrometry assay, 10 μL of supernatant from each well of the compound-treated plates were added to 40 μL of acetonitrile, containing 10 μM of an internal standard for normalization, in 384-well, polypropylene, V-bottom plates (Greiner Bio-One, Kremsmünster, Austria) to extract the organic analytes. Following centrifugation at 2000 rpm for 10 minutes, 10 μL from each well of the acetonitrile extraction plates were added to 90 μL of sterile, distilled H2O in 384-well, polypropylene, V-bottom plates for analysis of kynurenine and the internal standard on the RapidFire 300 (Agilent Technologies, Santa Clara, Calif.) and 4000 QTRAP MS (SCIEX, Framingham, Mass.). MS data were integrated using Agilent Technologies' RapidFire Integrator software, and data were normalized for analysis as a ratio of kynurenine to the internal standard. […]
# Sequence of indoleamine 2, 3-dioxygenase (IDO1) (P14902 whole entry): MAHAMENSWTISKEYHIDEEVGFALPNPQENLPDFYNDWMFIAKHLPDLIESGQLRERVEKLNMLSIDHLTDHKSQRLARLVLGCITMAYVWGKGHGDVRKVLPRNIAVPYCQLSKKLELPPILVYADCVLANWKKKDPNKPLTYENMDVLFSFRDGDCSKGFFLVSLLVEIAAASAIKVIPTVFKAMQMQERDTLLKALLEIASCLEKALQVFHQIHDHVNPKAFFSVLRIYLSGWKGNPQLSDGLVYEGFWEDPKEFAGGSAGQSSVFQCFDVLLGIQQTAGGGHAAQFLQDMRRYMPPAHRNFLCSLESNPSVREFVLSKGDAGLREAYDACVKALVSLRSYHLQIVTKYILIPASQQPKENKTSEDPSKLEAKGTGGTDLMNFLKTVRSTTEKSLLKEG
row,SMILES,EC50 [nM]
1,"CC(C)CN(CC(C)C)c1ccc(C(C)CC(=O)O)cc1Nc1nc2ccccc2[nH]1 (centres unmarked) [Example 2, 3-(3-((1H-benzo[d]imidazol-2-yl)amino)-4-(diisobutylamino)phenyl)butanoic acid]",3.98
2,"CC(C)CN(CC(C)C)c1ccc(C(C)CC(=O)O)cc1Nc1nc(-c2ccccc2)co1 (centres unmarked) [Example 3, 3-(4-(diisobutylamino)-3-((4-phenyloxazol-2-yl)amino)phenyl)butanoic acid]",501
3,"CC(C)CN(CC(C)C)c1ccc(C(C)CC(=O)O)cc1Nc1nc(C(C)C)co1 (centres unmarked) [Example 4, 3-(4-(diisobutylamino)-3-((4-isopropyloxazol-2-yl)amino)phenyl)butanoic acid]",631
4,"CC(C)CN(CC(C)C)c1ccc(C(C)CC(=O)O)cc1Nc1nc(C(F)(F)F)co1 (centres unmarked) [Example 5, 3-(4-(diisobutylamino)-3-((4-(trifluoromethyl)oxazol-2-yl)amino)phenyl)butanoic acid]",20
5,"CC(C)CN(c1ccc(C(C)CC(=O)O)cc1Nc1nc2ccccc2[nH]1)C1CCCCC1 (centres unmarked) [Example 6, 3-(3-((1H-benzo[d]imidazol-2-yl)amino)-4-(cyclohexyl(isobutyl)amino)phenyl)butanoic acid]",2.51
6,"CC(C)CN(c1ccc(C(C)CC(=O)O)cc1Nc1nc(Cl)ns1)C1CCCCC1 (centres unmarked) [Example 7, 3-(3-((3-chloro-1,2,4-thiadiazol-5-yl)amino)-4-(cyclohexyl(isobutyl)amino)phenyl)butanoic acid]",5.01
7,"CC(C)CN(c1ccc(C(C)CC(=O)O)cc1Nc1nc2ccccc2o1)C1CCCCC1 (centres unmarked) [Example 8, 3-(3-(benzo[d]oxazol-2-ylamino)-4-(cyclohexyl(isobutyl)amino)phenyl)butanoic acid]",31.6
8,"CC(C)CN(c1ccc(C(C)CC(=O)O)cc1Nc1nc2ccccc2s1)C1CCCCC1 (centres unmarked) [Example 9, 3-(3-(benzo[d]thiazol-2-ylamino)-4-(cyclohexyl(isobutyl)amino)phenyl)butanoic acid]",3.98
9,"CC(C)CN(c1ccc(C(C)CC(=O)O)cc1Nc1nc(-c2ccccc2)co1)C1CCCCC1 (centres unmarked) [Example 10, 3-(4-(cyclohexyl(isobutyl)amino)-3-((4-phenyloxazol-2-yl)amino)phenyl)butanoic acid]",100
10,"CC(C)CN(CC(C)C)c1ccc(C(C)CC(=O)O)cc1Nc1ccnc(Cl)n1 (centres unmarked) [Example 11, 3-(3-((2-chloropyrimidin-4-yl)amino)-4-(diisobutylamino)phenyl)butanoic acid, 2,2,2-trifluoro-acetic acid salt]",100
11,"CC(C)CN(c1ccc(C(C)CC(=O)O)cc1Nc1ccnc(Cl)n1)C1CCCCC1 (centres unmarked) [Example 13, 3-(3-((2-chloropyrimidin-4-yl)amino)-4-(cyclohexyl(isobutyl)amino)phenyl)butanoic acid]",12.6
12,"COc1nccc(Nc2cc(C(C)CC(=O)O)ccc2N(CC(C)C)C2CCCCC2)n1 (centres unmarked) [Example 14, 3-(4-(cyclohexyl(isobutyl)amino)-3-((2-methoxypyrimidin-4-yl)amino)phenyl)butanoic acid]",39.8
13,"Cc1cnc(Nc2cc(C(C)CC(=O)O)ccc2N(CC(C)C)CC(C)C)s1 (centres unmarked) [Example 15, 3-(4-(diisobutylamino)-3-((5-methylthiazol-2-yl)amino)phenyl)butanoic acid]",158
14,"CC(C)CN(CC(C)C)c1ccc(C(C)CC(=O)O)cc1Nc1cnc(-c2ccccc2)s1 (centres unmarked) [Example 16, 3-(4-(diisobutylamino)-3-((2-phenylthiazol-5-yl)amino)phenyl)butanoic acid]",126
15,"CCOC(=O)c1ncc(Nc2cc(C(C)CC(=O)O)ccc2N(CC(C)C)CC(C)C)s1 (centres unmarked) [Example 17, 3-(4-(diisobutylamino)-3-((2-(ethoxycarbonyl)thiazol-5-yl)amino)phenyl)butanoic acid]",25.1
16,"Cc1csc(Nc2cc(C(C)CC(=O)O)ccc2N(CC(C)C)CC(C)C)n1 (centres unmarked) [Example 24, 3-(4-(diisobutylamino)-3-((4-methylthiazol-2-yl)amino)phenyl)butanoic acid]",316
17,"CC(C)CN(CC(C)C)c1ccc(C(C)CC(=O)O)cc1Nc1nnc(C2CC2)s1 (centres unmarked) [Example 26, 3-(3-((5-cyclopropyl-1,3,4-thiadiazol-2-yl)amino)-4-(diisobutylamino)phenyl)butanoic acid, 2,2,2-trifluoro-acetic acid salt]",5.01
18,"CC(C)CN(CC(C)C)c1ccc(C(C)CC(=O)O)cc1Nc1nnc(-c2ccccc2)s1 (centres unmarked) [Example 27, 3-(4-(diisobutylamino)-3-((5-phenyl-1,3,4-thiadiazol-2-yl)amino)phenyl)butanoic acid]",31.6
19,"Cc1nnc(Nc2cc(C(C)CC(=O)O)ccc2N(CC(C)C)CC(C)C)s1 (centres unmarked) [Example 28, 3-(4-(diisobutylamino)-3-((5-methyl-1,3,4-thiadiazol-2-yl)amino)phenyl)butanoic acid]",31.6
20,"CC(C)CN(CC(C)C)c1ccc(C(C)CC(=O)O)cc1Nc1nc(C2CC2)ns1 (centres unmarked) [Example 30, 3-(3-((3-cyclopropyl-1,2,4-thiadiazol-5-yl)amino)-4-(diisobutylamino)phenyl)butanoic acid]",50.1
21,"Cc1nsc(Nc2cc(C(C)CC(=O)O)ccc2N(CC(C)C)CC(C)C)n1 (centres unmarked) [Example 31, 3-(4-(diisobutylamino)-3-((3-methyl-1,2,4-thiadiazol-5-yl)amino)phenyl)butanoic acid]",79.4
22,"CC(C)CN(CC(C)C)c1ccc(C(C)CC(=O)O)cc1Nc1nc(Br)ns1 (centres unmarked) [Example 32, 3-(3-((3-bromo-1,2,4-thiadiazol-5-yl)amino)-4-(diisobutylamino)phenyl)butanoic acid]",200
23,"CC(C)CN(c1ccc(C(C)CC(=O)O)cc1Nc1nc(C(F)(F)F)ns1)C1CCCCC1 (centres unmarked) [Example 33, 3-(4-(cyclohexyl(isobutyl)amino)-3-((3-(trifluoromethyl)-1,2,4-thiadiazol-5-yl)amino)phenyl)butanoic acid]",2.51
24,"CCCCc1cc(C(C)CC(=O)O)cc(Nc2nc3ccccc3o2)c1OCCC (centres unmarked) [Example 35, 3-(3-(benzo[d]oxazol-2-ylamino)-5-butyl-4-propoxyphenyl)butanoic acid]",200
25,"CCCCc1cc(C(C)CC(=O)O)cc(Nc2nc(Cl)ns2)c1OCCC (centres unmarked) [Example 36, 3-(3-butyl-5-((3-chloro-1,2,4-thiadiazol-5-yl)amino)-4-propoxyphenyl)butanoic acid, 2,2,2-trifluoroacetic acid salt]",158
26,"Cc1nc(Nc2cc(C(C)CC(=O)O)ccc2N(CC(C)C)CC(C)C)sc1C (centres unmarked) [Example 43, 3-(4-(diisobutylamino)-3-((4,5-dimethylthiazol-2-yl)amino)phenyl)butanoic acid]",316
27,"CC(C)CN(CC(C)C)c1ccc(C(C)CC(=O)O)cc1Nc1nc(C(F)(F)F)cs1 (centres unmarked) [Example 44, 3-(4-(diisobutylamino)-3-((4-(trifluoromethyl)thiazol-2-yl)amino)phenyl)butanoic acid]",20
28,"Cc1sc(Nc2cc(C(C)CC(=O)O)ccc2N(CC(C)C)CC(C)C)nc1C(F)(F)F (centres unmarked) [Example 45, 3-(4-(diisobutylamino)-3-((5-methyl-4-(trifluoromethyl)thiazol-2-yl)amino)phenyl)butanoic acid]",79.4
29,"CC(C)CN(CC(C)C)c1ccc(C(C)CC(=O)O)cc1Nc1nc(C(C)C)cs1 (centres unmarked) [Example 46, 3-(4-(diisobutylamino)-3-((4-isopropylthiazol-2-yl)amino)phenyl)butanoic acid]",126
